We go through 13 molecules from ChEMBL document CHEMBL1134011, “LY294002-geldanamycin heterodimers as selective inhibitors of the PI3K and PI3K-related family” (Bioorg Med Chem Lett, 2001).

Broadly, the IC50 is the concentration needed to halve the response being measured. Read a high IC50 as weaker potency. Broadly, the EC50 is the concentration at which the effect is half-maximal.

Experiment [1] can be described thus: Inhibition of Phoshoinositol 3 kinase. The arrangement: species or system Homo sapiens.
In experiment [2] the target is Heat shock protein HSP 90-alpha (Homo sapiens, UniProt P07900). As to the kind of experiment: Competitive binding towards Heat shock protein HSP 90-alpha.
Experiment [3] has as its target T1, DNA-dependent protein kinase catalytic subunit (Homo sapiens, UniProt P78527). Put plainly: Inhibition of DNA dependent protein kinase activity without hsp90 alpha protein.
Experiment [4] can be described thus: Inhibition of Phoshoinositol 3 kinase from MCF-7 breast cancer cells. The class given is cell-based, Homo sapiens. The conditions noted are these: mcf7.
Experiment [5] concerns the target T1, DNA-dependent protein kinase catalytic subunit. As to the kind of experiment: Inhibition of DNA dependent protein kinase with hsp90 alpha protein.

T1 sequence (P78527 whole entry): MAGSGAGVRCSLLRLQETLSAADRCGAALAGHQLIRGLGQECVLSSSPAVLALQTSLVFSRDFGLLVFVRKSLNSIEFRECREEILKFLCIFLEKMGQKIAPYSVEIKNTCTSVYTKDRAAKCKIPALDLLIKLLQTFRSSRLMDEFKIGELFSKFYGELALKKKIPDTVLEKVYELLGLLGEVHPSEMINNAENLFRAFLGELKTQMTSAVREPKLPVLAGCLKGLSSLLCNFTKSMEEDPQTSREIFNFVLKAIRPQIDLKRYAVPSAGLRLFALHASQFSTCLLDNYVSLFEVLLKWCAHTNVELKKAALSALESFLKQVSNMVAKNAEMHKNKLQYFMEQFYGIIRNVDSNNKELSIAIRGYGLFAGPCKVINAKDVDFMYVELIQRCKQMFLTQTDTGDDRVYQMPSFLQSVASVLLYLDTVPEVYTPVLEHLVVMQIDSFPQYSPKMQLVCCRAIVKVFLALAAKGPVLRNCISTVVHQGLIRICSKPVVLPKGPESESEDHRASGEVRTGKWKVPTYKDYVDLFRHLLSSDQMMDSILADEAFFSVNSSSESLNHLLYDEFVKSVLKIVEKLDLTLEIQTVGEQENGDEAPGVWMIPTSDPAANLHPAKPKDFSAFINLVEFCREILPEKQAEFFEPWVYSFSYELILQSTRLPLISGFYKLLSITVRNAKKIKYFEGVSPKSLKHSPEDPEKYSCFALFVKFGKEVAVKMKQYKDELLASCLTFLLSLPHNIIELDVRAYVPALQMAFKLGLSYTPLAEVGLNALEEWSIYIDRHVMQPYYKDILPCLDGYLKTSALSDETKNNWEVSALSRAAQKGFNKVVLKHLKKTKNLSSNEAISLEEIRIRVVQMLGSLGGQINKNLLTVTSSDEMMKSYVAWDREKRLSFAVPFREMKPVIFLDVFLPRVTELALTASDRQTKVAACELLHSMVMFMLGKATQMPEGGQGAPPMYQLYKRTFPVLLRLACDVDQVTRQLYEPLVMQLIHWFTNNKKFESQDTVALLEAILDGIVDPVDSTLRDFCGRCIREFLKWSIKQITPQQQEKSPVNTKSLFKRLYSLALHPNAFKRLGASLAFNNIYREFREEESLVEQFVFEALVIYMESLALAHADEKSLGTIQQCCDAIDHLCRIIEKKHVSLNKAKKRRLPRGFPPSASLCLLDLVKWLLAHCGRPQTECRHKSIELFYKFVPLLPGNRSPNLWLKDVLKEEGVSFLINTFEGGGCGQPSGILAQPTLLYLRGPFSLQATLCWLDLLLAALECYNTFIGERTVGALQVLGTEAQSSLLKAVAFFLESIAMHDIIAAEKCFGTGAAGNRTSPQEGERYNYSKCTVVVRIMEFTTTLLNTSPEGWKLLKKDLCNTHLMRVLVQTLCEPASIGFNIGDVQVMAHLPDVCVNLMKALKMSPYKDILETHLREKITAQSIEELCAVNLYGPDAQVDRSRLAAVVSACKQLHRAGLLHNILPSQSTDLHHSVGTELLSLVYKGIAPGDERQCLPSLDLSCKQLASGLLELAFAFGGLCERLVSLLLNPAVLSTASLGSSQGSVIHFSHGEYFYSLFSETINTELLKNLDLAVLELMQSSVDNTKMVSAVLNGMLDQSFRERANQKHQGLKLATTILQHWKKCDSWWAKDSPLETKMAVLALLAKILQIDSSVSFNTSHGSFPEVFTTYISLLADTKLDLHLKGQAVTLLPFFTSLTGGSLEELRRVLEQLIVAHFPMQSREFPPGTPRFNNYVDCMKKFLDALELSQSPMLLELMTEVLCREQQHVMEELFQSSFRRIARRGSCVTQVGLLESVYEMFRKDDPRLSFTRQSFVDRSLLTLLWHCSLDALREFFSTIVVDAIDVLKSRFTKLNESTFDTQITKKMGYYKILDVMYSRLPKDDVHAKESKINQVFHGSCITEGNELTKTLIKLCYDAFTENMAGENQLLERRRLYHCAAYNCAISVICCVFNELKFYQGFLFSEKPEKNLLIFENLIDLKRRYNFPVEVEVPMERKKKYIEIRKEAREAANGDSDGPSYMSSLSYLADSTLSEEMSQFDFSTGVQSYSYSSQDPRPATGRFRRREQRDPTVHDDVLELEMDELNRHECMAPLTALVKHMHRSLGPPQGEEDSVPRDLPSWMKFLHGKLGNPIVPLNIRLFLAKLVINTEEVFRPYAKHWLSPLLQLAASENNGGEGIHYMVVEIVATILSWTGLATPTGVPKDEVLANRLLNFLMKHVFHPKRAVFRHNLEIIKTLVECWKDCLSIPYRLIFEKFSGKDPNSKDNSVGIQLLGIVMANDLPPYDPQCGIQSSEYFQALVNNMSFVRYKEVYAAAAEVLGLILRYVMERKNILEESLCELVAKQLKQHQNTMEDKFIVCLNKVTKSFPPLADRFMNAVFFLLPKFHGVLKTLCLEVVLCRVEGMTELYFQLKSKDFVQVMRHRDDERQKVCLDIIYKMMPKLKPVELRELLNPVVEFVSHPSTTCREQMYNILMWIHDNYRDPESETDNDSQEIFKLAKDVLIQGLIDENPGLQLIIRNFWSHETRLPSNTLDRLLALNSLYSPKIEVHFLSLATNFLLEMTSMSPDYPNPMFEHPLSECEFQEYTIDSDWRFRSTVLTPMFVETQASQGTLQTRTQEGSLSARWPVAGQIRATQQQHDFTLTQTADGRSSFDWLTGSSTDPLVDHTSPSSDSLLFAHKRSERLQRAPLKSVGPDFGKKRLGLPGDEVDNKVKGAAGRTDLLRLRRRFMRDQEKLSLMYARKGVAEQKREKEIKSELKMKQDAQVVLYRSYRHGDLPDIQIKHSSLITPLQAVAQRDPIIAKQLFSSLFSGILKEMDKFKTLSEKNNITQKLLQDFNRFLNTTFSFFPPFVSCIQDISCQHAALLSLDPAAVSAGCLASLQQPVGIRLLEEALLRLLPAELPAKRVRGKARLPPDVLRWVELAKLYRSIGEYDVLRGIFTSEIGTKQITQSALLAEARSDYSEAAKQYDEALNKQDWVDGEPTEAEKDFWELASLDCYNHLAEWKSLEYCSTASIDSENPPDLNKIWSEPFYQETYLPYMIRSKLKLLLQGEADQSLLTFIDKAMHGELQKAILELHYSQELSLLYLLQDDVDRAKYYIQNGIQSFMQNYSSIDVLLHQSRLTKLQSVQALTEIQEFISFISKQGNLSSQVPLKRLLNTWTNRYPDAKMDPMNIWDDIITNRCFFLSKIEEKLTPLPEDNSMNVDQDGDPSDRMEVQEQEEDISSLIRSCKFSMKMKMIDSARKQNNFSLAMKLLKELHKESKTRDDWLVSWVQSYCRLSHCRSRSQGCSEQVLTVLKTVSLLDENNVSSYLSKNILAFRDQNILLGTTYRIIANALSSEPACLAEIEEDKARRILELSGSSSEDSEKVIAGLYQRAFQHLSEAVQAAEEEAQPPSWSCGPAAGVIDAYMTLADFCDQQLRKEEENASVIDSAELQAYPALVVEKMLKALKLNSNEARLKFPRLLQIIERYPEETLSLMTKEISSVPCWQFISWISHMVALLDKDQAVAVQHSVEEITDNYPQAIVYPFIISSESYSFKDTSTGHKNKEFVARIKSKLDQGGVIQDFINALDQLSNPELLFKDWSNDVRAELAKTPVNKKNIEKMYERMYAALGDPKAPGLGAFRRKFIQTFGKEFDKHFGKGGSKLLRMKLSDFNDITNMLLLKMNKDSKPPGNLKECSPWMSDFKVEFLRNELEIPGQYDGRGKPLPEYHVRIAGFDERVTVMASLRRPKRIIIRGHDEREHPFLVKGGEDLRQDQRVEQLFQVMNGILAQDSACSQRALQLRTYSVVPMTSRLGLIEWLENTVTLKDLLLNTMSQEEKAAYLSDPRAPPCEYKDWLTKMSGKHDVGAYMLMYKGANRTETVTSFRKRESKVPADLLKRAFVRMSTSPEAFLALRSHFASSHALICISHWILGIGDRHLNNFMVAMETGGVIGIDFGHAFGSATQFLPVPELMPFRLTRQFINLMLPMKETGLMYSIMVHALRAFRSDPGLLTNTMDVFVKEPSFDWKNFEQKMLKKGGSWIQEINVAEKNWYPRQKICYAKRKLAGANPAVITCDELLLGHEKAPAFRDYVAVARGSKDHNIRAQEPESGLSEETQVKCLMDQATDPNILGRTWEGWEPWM

`O=c1cc(N2CCOCC2)oc2c1ccc1ccccc12` came in with an IC50 in experiment [1] of 6 µM.

As for `CO[C@H]1/C=C\C=C(/C)C(=O)NC2=CC(=O)C(NCCCCCCCCOc3ccc4c(=O)cc(N5CCOCC5)oc4c3C)=C(C[C@@H](C)C[C@H](OC)[C@H](O)[C@@H](C)/C=C(\C)[C@@H]1OC(N)=O)C2=O`, the EC50 in experiment [2] turned out to be 28 µM. In addition, the IC50 in experiment [3] is 1.75 µM; in experiment [4] it was 28 µM.

Take `CO[C@H]1/C=C\C=C(/C)C(=O)NC2=CC(=O)C(NCCCOc3ccc4c(=O)cc(N5CCOCC5)oc4c3)=C(C[C@@H](C)C[C@H](OC)[C@H](O)[C@@H](C)/C=C(\C)[C@@H]1OC(N)=O)C2=O`: the EC50 in experiment [2] was 26 µM. In addition, the IC50 was 28 µM in experiment [3] and above 500 µM in experiment [4].

As to `CO[C@H]1/C=C\C=C(/C)C(=O)NC2=CC(=O)C(NCCCCCOc3ccc4c(=O)cc(N5CCOCC5)oc4c3)=C(C[C@@H](C)C[C@H](OC)[C@H](O)[C@@H](C)/C=C(\C)[C@@H]1OC(N)=O)C2=O`, the EC50 in experiment [2] was 2.5 µM. In addition, the IC50 in experiment [3] was found to be 10 µM; in experiment [5], 5 µM; in experiment [4], 310 µM.

In experiment [2], `CO[C@H]1/C=C\C=C(/C)C(=O)NC2=CC(=O)C(NCCCCCCCOc3ccc4c(=O)cc(N5CCOCC5)oc4c3C)=C(C[C@@H](C)C[C@H](OC)[C@H](O)[C@@H](C)/C=C(\C)[C@@H]1OC(N)=O)C2=O` returned an EC50 of 46 µM. The IC50 in experiment [3] stood at 3.7 µM; in experiment [4], 5 µM.

The molecule `CO[C@H]1/C=C\C=C(/C)C(=O)NC2=CC(=O)C(NCCCCCCOc3ccc4c(=O)cc(N5CCOCC5)oc4c3)=C(C[C@@H](C)C[C@H](OC)[C@H](O)[C@@H](C)/C=C(\C)[C@@H]1OC(N)=O)C2=O` gave an EC50 in experiment [2] of 4 µM. Besides, the IC50 in experiment [3] was 6.1 µM; in experiment [4], above 500 µM.

Take `CO[C@H]1/C=C\C=C(/C)C(=O)NC2=CC(=O)C(NCCCCOc3ccc4c(=O)cc(N5CCOCC5)oc4c3)=C(C[C@@H](C)C[C@H](OC)[C@H](O)[C@@H](C)/C=C(\C)[C@@H]1OC(N)=O)C2=O`: in experiment [2], the EC50 was found to be 10 µM. Also, the IC50 in experiment [3] is 13.9 µM; in experiment [4] it was 200 µM.

For `CO[C@H]1/C=C\C=C(/C)C(=O)NC2=CC(=O)C(NCC#Cc3cccc4c(=O)cc(N5CCOCC5)oc34)=C(C[C@@H](C)C[C@H](OC)[C@H](O)[C@@H](C)/C=C(\C)[C@@H]1OC(N)=O)C2=O`, in experiment [2], the EC50 was 7 µM. Moreover, the IC50 in experiment [3] and in experiment [4] was 3 µM throughout.

In the case of `CO[C@H]1/C=C\C=C(/C)C(=O)NC2=CC(=O)C(NCCCC#Cc3cccc4c(=O)cc(N5CCOCC5)oc34)=C(C[C@@H](C)C[C@H](OC)[C@H](O)[C@@H](C)/C=C(\C)[C@@H]1OC(N)=O)C2=O`, in experiment [2], the EC50 was above 50 µM. In addition, the IC50 was determined as 13.4 µM in experiment [3] and 13.5 µM in experiment [4].

In turn, `O=c1cc(N2CCOCC2)oc2ccccc12` had an EC50 in experiment [2] above 50 µM. Also, the IC50 in experiment [3] is 4.3 µM; in experiment [4], 14 µM.

For `CO[C@H]1/C=C\C=C(/C)C(=O)NC2=CC(=O)C(NCCOCCOc3ccc4c(=O)cc(N5CCOCC5)oc4c3C)=C(C[C@@H](C)C[C@H](OC)[C@H](O)[C@@H](C)/C=C(\C)[C@@H]1OC(N)=O)C2=O`, the EC50 in experiment [2] is above 50 µM. For the same molecule, the figures for the IC50 in experiment [3] and in experiment [4] were 12.2 µM and 70 µM, respectively.

Molecule `CO[C@H]1/C=C\C=C(/C)C(=O)NC2=CC(=O)C(NCCOCCOc3ccc4c(=O)cc(N5CCOCC5)oc4c3)=C(C[C@@H](C)C[C@H](OC)[C@H](O)[C@@H](C)/C=C(\C)[C@@H]1OC(N)=O)C2=O` displayed an EC50 in experiment [2] of 16 µM. For the same molecule, the IC50 in experiment [3] is 33 µM; in experiment [4], 85 µM.

`C=CCNC1=C2C[C@@H](C)C[C@H](OC)[C@H](O)[C@@H](C)/C=C(\C)[C@H](OC(N)=O)[C@@H](OC)/C=C\C=C(/C)C(=O)NC(=CC1=O)C2=O` [TANESPIMYCIN]: the IC50 in experiment [3] was above 40 µM; in experiment [4], above 500 µM.
